Results as given in patent publication US8552176B2 (priority 2010, dated 2013).

Experiments:
UO-31 = assay: NCI 60 Human Tumor Cell Line Anticancer Screen; format: cell-based; details: UO-31, Renal
NCI-H460 = assay: NCI 60 Human Tumor Cell Line Anticancer Screen; format: cell-based; details: NCI-H460, Non-small cell lung
MCF7 [1] = assay: NCI 60 Human Tumor Cell Line Anticancer Screen; format: cell-based; details: MCF7, Breast
Hep3b = assay: cells; format: cell-based, human; details: read-out: GI50 Hep3b liver
MCF7 [2] = assay: cells; format: cell-based, human; details: read-out: GI50 MCF7 breast
OVCAR-3 = assay: NCI 60 Human Tumor Cell Line Anticancer Screen; format: cell-based; details: OVCAR-3, Ovary
SK-MEL-28 = assay: NCI 60 Human Tumor Cell Line Anticancer Screen; format: cell-based; details: SK-MEL-28, Melanoma
RPMI-8226 = assay: NCI 60 Human Tumor Cell Line Anticancer Screen; format: cell-based; details: RPMI-8226, Leukemia
MDA-MB-435 = assay: NCI 60 Human Tumor Cell Line Anticancer Screen; format: cell-based; details: MDA-MB-435, Melanoma
HT29 = assay: NCI 60 Human Tumor Cell Line Anticancer Screen; format: cell-based; details: HT29, Colon
A549 = assay: cells; format: cell-based, human; details: read-out: GI50 A549 lung (+p53)
NCI/ADR-RES = assay: NCI 60 Human Tumor Cell Line Anticancer Screen; format: cell-based; details: Ovary
OVCAR-8 = assay: NCI 60 Human Tumor Cell Line Anticancer Screen; format: cell-based; details: OVCAR-8, Ovary
HL-60 (TB) = format: cell-based, human
HCT-116 = assay: NCI 60 Human Tumor Cell Line Anticancer Screen; format: cell-based; details: HCT-116, Colon
K-562 = assay: NCI 60 Human Tumor Cell Line Anticancer Screen; format: cell-based; details: K-562, Leukemia
H1299 = assay: cells; format: cell-based, human
KM12 = assay: NCI 60 Human Tumor Cell Line Anticancer Screen; format: cell-based; details: KM12, Colon
[3] = tested on: ten-member panel of human carcinomas; assay: cells; format: cell-based
A498 = assay: NCI 60 Human Tumor Cell Line Anticancer Screen; format: cell-based; details: A498, Renal
NCI-H322M = assay: NCI 60 Human Tumor Cell Line Anticancer Screen; format: cell-based; details: Non-small cell lung
NCI-H226 = assay: NCI 60 Human Tumor Cell Line Anticancer Screen; format: cell-based; details: NCI-H226, Non-small cell lung
SNB-19 = assay: NCI 60 Human Tumor Cell Line Anticancer Screen; format: cell-based; details: SNB-19, CNS
OVCAR-4 = assay: NCI 60 Human Tumor Cell Line Anticancer Screen; format: cell-based; details: OVCAR-4, Ovary
BT-549 = assay: NCI 60 Human Tumor Cell Line Anticancer Screen; format: cell-based; details: BT-549, Breast
NCI-H522 = assay: NCI 60 Human Tumor Cell Line Anticancer Screen; format: cell-based; details: NCI-H522, Non-small cell lung
SR = assay: NCI 60 Human Tumor Cell Line Anticancer Screen; format: cell-based; details: Leukemia
TK-10 = assay: NCI 60 Human Tumor Cell Line Anticancer Screen; format: cell-based; details: TK-10, Renal
DU-145 = assay: NCI 60 Human Tumor Cell Line Anticancer Screen; format: cell-based; details: DU-145, Prostate

CON(CCCCc1ccc(N(CCCl)CCCl)cc1)C1OCC(O)C1O (centres unmarked) [Compound 60]
GI50 (UO-31): 0.856 µM
Inhibition at 10 μM (UO-31; 10 μM): 54.43%
GI50 (NCI-H460): 3.76 µM
Inhibition at 10 μM (NCI-H460; 10 μM): 35.80%
GI50 (MCF7 [1]): 4.51 µM
Inhibition at 10 μM (MCF7 [1]; 10 μM): 32.40%
GI50 (Hep3b): 0.67 ± 0.06 µM
GI50 (MCF7 [2]): 1.8 ± 0.1 µM
GI50 (OVCAR-3): 15.3 µM
Inhibition at 10 μM (OVCAR-3; 10 μM): 85.34%
GI50 (SK-MEL-28): 36.5 µM
Inhibition at 10 μM (SK-MEL-28; 10 μM): 116.87%
Inhibition at 10 μM (RPMI-8226): 15.94%
GI50 (MDA-MB-435): 21.1 µM
Inhibition at 10 μM (MDA-MB-435; 10 μM): 83.03%
GI50 (HT29): 26.6 µM
Inhibition at 10 μM (HT29; 10 μM): 70.71%
GI50 (A549): 1.1 ± 0.1 µM
GI50 (NCI/ADR-RES): 4.61 µM
Inhibition at 10 μM (NCI/ADR-RES; 10 μM): 61.54%
GI50 (OVCAR-8): 9.13 µM
Inhibition at 10 μM (OVCAR-8; 10 μM): 68.13%
GI50 (HL-60 (TB)): 1.88 µM
Inhibition at 10 μM (HL-60 (TB)): 68.31%
GI50 (HCT-116): 14.5 µM
Inhibition at 10 μM (HCT-116; 10 μM): 69.37%
Inhibition at 10 μM (K-562): 88.55%
improved activity over the parent drug (H1299): 13 fold
GI50 (H1299; read-out: GI50 H1299 lung (−p53)): 0.37 ± 0.04 µM
GI50 (KM12): 30 µM
Inhibition at 10 μM (KM12; 10 μM): 97.57%
improvement in average growth inhibition across the cell panel [3]: 8 fold
increases in potency compared to 1 [3]: up to 15 fold
GI50 (A498): 21.8 µM
Inhibition at 10 μM (A498; 10 μM): 114.47%
GI50 (NCI-H322M): > 100 µM
Inhibition at 10 μM (NCI-H322M; 10 μM): 99.02%
GI50 (NCI-H226): 0.925 µM
Inhibition at 10 μM (NCI-H226; 10 μM): 84.25%
GI50 (SNB-19): 33.4 µM
Inhibition at 10 μM (SNB-19; 10 μM): 65.81%
GI50 (OVCAR-4): 29.2 µM
Inhibition at 10 μM (OVCAR-4; 10 μM): 77.16%
GI50 (BT-549): 13.4 µM
Inhibition at 10 μM (BT-549; 10 μM): 38.53%
GI50 (NCI-H522): 10 µM
Inhibition at 10 μM (NCI-H522; 10 μM): 52.38%
GI50 (SR): 0.386 µM
Inhibition at 10 μM (SR; 10 μM): 48.67%
GI50 (TK-10): 31.7 µM
Inhibition at 10 μM (TK-10; 10 μM): 97.20%
GI50 (DU-145): 4.84 µM
Inhibition at 10 μM (DU-145; 10 μM): 56.78%
